Experimental data from patent US8063039B2, “3-aminopyrrolidone derivatives” (Newron Pharmaceuticals S.p.A., priority 2003, dated 2011).
Counter-ions that a name gives are not always drawn.

- melting point: 140.5 to 143.5 °C
Structure (SMILES): O=C1NCC[C@@H]1NCc1ccc(OCc2cccc(F)c2)cc1 (as salt: sulfonic acid salt) [Example 1, (S)-3-[4-(3-Fluorobenzyloxy)-benzylamino]-pyrrolidin-2-one]
